Data reported in publication PMC10892093 (Pharmaceutics, 2024).

Tests used:
[1] = target: T1, UGT2B15 (Homo sapiens, UniProt P54855); assay: Inhibition of S-oxazepam glucuronidation in rUGT2B15 homogenate/microsomes (UGT-overexpressing HEK293); format: biochemical
T1 construct: expressed in transfected cells; cell homogenate
T1 sequence (P54855 24-530): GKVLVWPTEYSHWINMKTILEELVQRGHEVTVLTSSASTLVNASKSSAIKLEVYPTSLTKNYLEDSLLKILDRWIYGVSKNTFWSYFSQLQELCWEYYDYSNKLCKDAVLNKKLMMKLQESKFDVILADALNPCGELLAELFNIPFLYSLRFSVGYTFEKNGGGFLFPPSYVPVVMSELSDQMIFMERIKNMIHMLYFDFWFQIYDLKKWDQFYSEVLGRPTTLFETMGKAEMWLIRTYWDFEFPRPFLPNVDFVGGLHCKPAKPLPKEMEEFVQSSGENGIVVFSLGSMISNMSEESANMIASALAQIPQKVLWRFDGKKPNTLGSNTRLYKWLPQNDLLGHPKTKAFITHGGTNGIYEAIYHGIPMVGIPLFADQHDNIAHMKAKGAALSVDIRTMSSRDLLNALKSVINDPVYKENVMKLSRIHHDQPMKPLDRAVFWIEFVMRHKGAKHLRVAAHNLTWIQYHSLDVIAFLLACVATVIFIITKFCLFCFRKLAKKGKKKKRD
Description: (§1) Human embryonic kidney cells (HEK293) stably overexpressing the single UGTs 1A9, 2B7, and 2B15 have been previously established and described. Cells were grown in DMEM supplemented with 350 μg/mL of geneticin and 10% FBS and harvested in PBS. Microsomal fractions of UGT-overexpressing cell lines were prepared by differential centrifugation using previously described protocols. Briefly, cell homogenates were prepared by resuspending pelleted cells in PBS, followed by five rounds of freeze–thaw cycles prior to homogenization. Recombinant microsomes (rUGTs) were prepared by centrifuging the cell homogenate at a low speed (9000× g for 30 min) followed by ultracentrifugation (34,000× g for 60 min), with the total protein subsequently determined using a BCA assay. Recombinant microsomes (UGT1A9 and 2B7) and homogenates (UGT2B15) were used for inhibition studies.
(§2) A Waters Corp BEH C18 Acquity UPLC column (1.7 µM, 2.1 × 100 mm) was used at a constant temperature of 40 °C for chromatographic separation. An elution gradient was used for 6.5 min with mobile phases A (5 mM ammonium formate) and B (100% methanol) under the following conditions: 90% A for 0.5 min, followed by a linear gradient for 3 min to 60% A, 1 min at 5% A, and re-equilibration for 1 min at 90% A.
(§3) The reaction was initiated by the addition of 4 mM UDPGA as the cofactor and incubated for 2 h at 37 °C. The reaction was terminated by adding 30 µL of an ice-cold stop solution (acetonitrile/methanol; 1:1). The reaction mixtures were centrifuged at 17,000× g for 30 min at 4 °C, and the supernatant was transferred to UPLC sample glass vial for analysis using UPLC–MS/MS (described above). […] As a positive control for inhibition assays, ketoconazole (10 μM and 100 µM) was used as a potential inhibitor of the UGTs 1A9, 2B7, and 2B15. Reactions containing only the cannabinoid vehicle (3% methanol) and without any inhibitor (cannabinoids) were used as a baseline reaction for 100% enzyme activity, while a reaction without UDPGA was used as a negative control. All experiments were performed in three independent experiments.
(§4) Determination of IC50 and Ki Values. […] The nonspecific binding constants (fu,inc) for cannabinoids in HEK293 microsomes, HLM, and HKM were previously determined and used to calculate the inhibition by unbound (‘free’) cannabinoid in each reaction. A nonlinear regression analysis and the following equation were used to calculate the IC50 values:(1) y = Bottom +Top − Bottom / 1 + 10^x − LogIC50A where ‘Bottom’ is the maximum observed inhibition (lowest percent activity) and ‘Top’ is the minimum observed inhibition (highest percent activity) for a given cannabinoid.

[2] = target: T2, UGT2B7 (Homo sapiens, UniProt P16662); assay: Inhibition of R- and S-oxazepam glucuronidation in rUGT2B7 microsomes (UGT-overexpressing HEK293); format: biochemical
T2 construct: expressed in transfected cells; microsomal fraction
T2 sequence (P16662 24-529): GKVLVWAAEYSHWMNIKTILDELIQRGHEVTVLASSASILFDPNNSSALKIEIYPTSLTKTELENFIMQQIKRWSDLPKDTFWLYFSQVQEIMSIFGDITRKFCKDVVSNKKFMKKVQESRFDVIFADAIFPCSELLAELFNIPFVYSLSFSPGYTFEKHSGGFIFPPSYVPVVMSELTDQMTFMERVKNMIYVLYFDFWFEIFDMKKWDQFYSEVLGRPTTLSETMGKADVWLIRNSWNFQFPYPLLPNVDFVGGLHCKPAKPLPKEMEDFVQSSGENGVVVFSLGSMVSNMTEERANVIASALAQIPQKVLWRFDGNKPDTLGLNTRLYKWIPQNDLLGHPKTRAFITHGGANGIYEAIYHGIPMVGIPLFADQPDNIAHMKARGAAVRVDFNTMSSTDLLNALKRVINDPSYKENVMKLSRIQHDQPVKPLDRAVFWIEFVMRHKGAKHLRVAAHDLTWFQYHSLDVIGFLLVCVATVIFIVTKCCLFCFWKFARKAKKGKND
Description: as §1, §2, §3, §4

[3] = target: T3, UGT1A9 (Homo sapiens, UniProt O60656); assay: Inhibition of R-oxazepam glucuronidation in rUGT1A9 microsomes (UGT-overexpressing HEK293); format: biochemical
T3 construct: expressed in transfected cells; microsomal fraction
T3 sequence (O60656 26-530): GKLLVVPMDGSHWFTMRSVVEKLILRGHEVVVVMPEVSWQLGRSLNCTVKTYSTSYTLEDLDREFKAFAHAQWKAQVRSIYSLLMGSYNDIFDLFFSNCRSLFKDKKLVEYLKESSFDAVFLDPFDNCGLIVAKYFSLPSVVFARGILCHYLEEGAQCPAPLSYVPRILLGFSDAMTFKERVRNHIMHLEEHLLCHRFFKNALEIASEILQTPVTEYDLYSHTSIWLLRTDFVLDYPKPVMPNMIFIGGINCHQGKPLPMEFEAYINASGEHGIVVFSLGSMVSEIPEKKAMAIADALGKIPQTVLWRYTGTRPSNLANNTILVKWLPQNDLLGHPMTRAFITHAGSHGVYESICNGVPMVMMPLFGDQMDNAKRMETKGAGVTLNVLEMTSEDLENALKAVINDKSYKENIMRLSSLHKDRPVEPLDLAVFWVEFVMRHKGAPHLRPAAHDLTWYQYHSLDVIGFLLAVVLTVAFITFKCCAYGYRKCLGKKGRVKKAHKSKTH
Description: as §1, §2, §3, §4

[4] = system: human kidney microsomes (HKM); assay: Inhibition of R- and S-oxazepam glucuronidation in human kidney microsomes; conditions: read-out: IC50, oxazepam glucuronidation (marginal or no inhibition)
Description: as §2, §3, §4

[5] = system: human liver microsomes (HLM); assay: Inhibition of R- and S-oxazepam glucuronidation in human liver microsomes; conditions: read-out: IC50, oxazepam glucuronidation (marginal or no inhibition)
Description: as §2, §3, §4
The inhibition constant (Ki) was generated from the in vitro IC50 values assuming competitive inhibition (based on the Cheng–Prusoff equation; [49]). Considering that there have been no reports of the irreversible inhibition (e.g., mechanism-based inhibition) of UGTs, competitive inhibition was assumed as the worst-case scenario (highest inhibition) among all feasible types of reversible inhibitions. The substrate concentration used in the incubations was below the reported Km; therefore, the Ki values were predicted using Equation (2):(2) Ki=IC50/S/Km+1 where Km is Michaelis–Menten constant for the substrate, S is the substrate concentration, and IC50 is half-maximal inhibitory concentration.

[6] = value set for the static model; cited from earlier work
[7] = rUGT2B7 microsomes, 100 µM cannabinoid

CCCCCc1cc(O)c2c(c1)OC(C)(C)[C@@H]1CCC(C(=O)O)=C[C@@H]21 [11-COOH-THC, 11-nor-9-carboxy-Δ^9-tetrahydrocannabinol]
IC50 ([1]; read-out: IC50, oxazepam glucuronidation (marginal or no inhibition), recombinant UGT microsomes (rUGT2B15)): > 100 µM
Inhibition of R-oxazepam glucuronidation [2, 7]: 45%
Inhibition of S-oxazepam glucuronidation [2, 7]: 55%
IC50 ([2]; read-out: IC50, oxazepam glucuronidation (marginal or no inhibition), recombinant UGT microsomes (rUGT2B7)): > 100 µM
Inhibition of R-oxazepam glucuronide formation ([3]; rUGT1A9 microsomes, 100 µM cannabinoid, vs control without cannabinoid): 80%
IC50 ([3]; read-out: IC50, oxazepam glucuronidation (marginal or no inhibition), recombinant UGT microsomes (rUGT1A9)): > 100 µM
IC50 [4]: > 100 µM
IC50 [5]: > 100 µM

O=C1Nc2ccc(Cl)cc2C(c2ccccc2)=NC1O (stereo not drawn) [oxazepam, Oxazepam]
fm (fractional metabolism via glucuronidation) [6]: 0.8

CC(=O)N1CCN(c2ccc(OCC3COC(Cn4ccnc4)(c4ccc(Cl)cc4Cl)O3)cc2)CC1 (stereo not drawn) [ketoconazole]
inhibition at 2 h, 100 µM ([1]; human, pH 7.4, probe R,S-oxazepam 12 µM, oxazepam glucuronide formation, rUGT2B15 microsomes, 100 µM ketoconazole, range over the three enzymes): 49 to 85%
inhibition at 2 h, 100 µM ([2]; human, pH 7.4, probe R,S-oxazepam 60 µM, oxazepam glucuronide formation, Inhibition of oxazepam glucuronide formation, rUGT2B7 microsomes, 100 µM ketoconazole, range over the three enzymes): 49 to 85%
inhibition at 2 h, 100 µM ([3]; human, pH 7.4, probe R,S-oxazepam 4 µM, oxazepam glucuronide formation, rUGT1A9 microsomes, 100 µM ketoconazole, range over the three enzymes): 49 to 85%
